Results published in EP0401963A1, “Phosphonopeptides with collagenase inhibiting activity” (Beecham Group p.l.c., priority 1989, dated 1990).

Target: human lung fibroblast collagenase
Assay: Collagenase inhibitor assay (human lung fibroblast collagenase, 14C-acetylated Type I collagen fibril degradation)
Format: biochemical
Settings: Inhibition of human lung fibroblast collagenase (purified from WI-38 culture supernatants); 14C-acetylated rat skin Type I collagen substrate; 37°C overnight; read-out: IC₅₀
Protocol: The assay tubes are incubated at 37 °C overnight.

IC50 [nM]	SMILES
45	CC[C@@H](N[C@@H](CC(C)C)C(=O)NC1CCCCCCCCCCNC1=O)P(=O)(O)O (single isomer, unassigned) [Example E3C]
166	CC[C@H](N[C@@H](CC(C)C)C(=O)NC1CCCCCCCCCCNC1=O)P(=O)(O)O (single isomer, unassigned) [Example E4]
9490	CCCCC(N[C@@H](CC(C)C)C(=O)NC1CCCCCCCCCCNC1=O)P(=O)(O)O (stereo partly drawn) [Example E8, 3-[N-[N-(1-Phosphonopentyl)-(S)-leucyl]]-(-)-aminoazacyclotridecan-2-one]
